Assay results taken from patent US20100152235A1, “OXADIAZOLE DERIVATIVES ACTIVE ON SPHINGOSINE-1-PHOSPHATE (S1P)” (priority 2007, published 2010).
Counter-ions that a name gives are not always drawn.

Experiments:
human S1P1 receptor = molecular target: T1, human S1P1 receptor (Homo sapiens, UniProt P21453); assay: S1P1 GTPγS assay; type: biochemical; conditions: [35S]-GTPγS SPA, membranes of rat hepatoma cells expressing human S1P1, agonist
T1 construct: expressed in transfected cells; membranes
T1 sequence (P21453 whole entry): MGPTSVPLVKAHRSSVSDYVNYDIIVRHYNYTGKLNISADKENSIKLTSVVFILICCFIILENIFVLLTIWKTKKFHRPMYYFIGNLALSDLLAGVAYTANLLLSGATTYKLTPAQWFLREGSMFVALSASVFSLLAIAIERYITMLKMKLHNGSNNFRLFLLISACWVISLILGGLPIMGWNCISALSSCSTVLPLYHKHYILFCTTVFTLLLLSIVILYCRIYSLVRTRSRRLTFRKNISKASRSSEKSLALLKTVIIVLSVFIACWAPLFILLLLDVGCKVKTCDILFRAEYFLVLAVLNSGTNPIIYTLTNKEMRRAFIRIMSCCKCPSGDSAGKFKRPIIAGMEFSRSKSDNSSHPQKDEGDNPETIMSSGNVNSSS
Description: (§1) For membrane preparations all steps were performed at 4° C. Rat hepatoma cells stably expressing the human S1P1 receptor or Rat Basophilic Leukaemia cells (RBL) stably expressing human S1P3 receptor were grown to 80% confluency before being harvested into 10 ml Phospho-Buffered Saline (PBS) and centrifuged at 1200 rpm for 5 minutes. After removal of the supernatant, the pellet was re-suspended and cells were homogenised within a glass Waring blender for 2 bursts of 15 secs in 200 mls of buffer (50 mM HEPES, 1 mM leupeptin, 25 μg/ml bacitracin, 1 mM EDTA, 1 mM PMSF, 2 μM pepstatin A). The blender was plunged into ice for 5 mins after the first burst and 10-40 mins after the final burst to allow foam to dissipate. The material was then spun at 500 g for 20 mins and the supernatant spun for 36 mins at 48,000 g. The pellet was resuspended in the same buffer as above but without PMSF and pepstatin A. The material was then forced through a 0.6 mm needle, made up to the required volume, (usually ×4 the volume of the original cell pellet), aliquoted and stored frozen at −80° C.
as §1, with “All” for “For membrane preparations all”, “Cells” for “Rat hepatoma cells stably expressing the human S1P1 receptor or Rat Basophilic Leukaemia cells (RBL) stably expressing human S1P3 receptor were grown to 80% confluency before being harvested into 10 ml Phospho-Buffered Saline (PBS) and centrifuged at 1200 rpm for 5 minutes. After removal of the supernatant, the pellet was re-suspended and cells”
Human S1P1 rat hepatoma membranes (1.5 μg/well) were adhered to a wheatgerm agglutinin (WGA)-coated scintillation proximity assay (SPA) beads (0.125 mg/well) in assay buffer (HEPES 20 mM, MgCl2 10 mM, NaCl 100 mM and pH adjusted to 7.4 using KOH 5 M, GDP 10 μM FAC (final assay concentration) and saponin 90 μg/ml FAC was also added).
After 30 minutes pre-coupling on ice the bead and membrane suspension was dispensed into a white Greiner polypropylene LV384-well plate ([…]), containing 0.1 μl of the compound. […] [^35S]-GTPγS (0.5 nM final radioligand conc) made up in assay buffer was then added to agonist plates. The final assay cocktail (10.1 μl) was then centrifuged at 1000 rpm for 5 minutes then read immediately on a Viewlux reader.
All test compounds were dissolved in DMSO at a concentration of 10 mM and were prepared in 100% DMSO using a 1 in 4 dilution step to provide 11 point dose response curves. The dilutions were transferred to the assay plates ensuring that the DMSO concentration was constant across the plate for all assays.
All data was normalized to the mean of 16 high and 16 low control wells on each plate. A four parameter curve fit was then applied.
S1P1 expressing RH7777 membranes (1.5 μg/well) […] were homogenised by passing through a 23G needle. These were then adhered to WGA-coated SPA beads (0.125 mg/well) in assay buffer (HEPES 20 mM, MgCl2 10 mM, NaCl 100 mM and pH adjusted to 7.4 using KOH 5M). GDP […] FAC and saponin 90 μg/ml FAC were also added.
After 30 minutes precoupling on ice, the bead and membrane suspension was dispensed into white Greiner polypropylene LV 384-well plates (5 μl/well), containing 0.1 μl of compound. 5 μl/well [^35S]-GTPγS (0.5 nM for S1P1 or 0.3 nM for S1P3 final radioligand concentration) made in assay buffer was then added to the plates. The final assay cocktail (10.1 μl) was then sealed, spun on a centrifuge, then read immediately on a Viewlux instrument.

circulating lymphocytes = conditions: animals and man, literature; cited from earlier work
[1] = clinical studies, first 24 hours of treatment, literature; cited from earlier work

SMILES | EC50 (human S1P1 receptor) | effect on circulating lymphocytes (circulating lymphocytes) | bradycardia [1]
Cc1c(-c2noc(-c3ccc(OC(C)C)c(Cl)c3)n2)ccc2c1CCN(CC(=O)O)C2 [Example 9, [6-(5-{3-Chloro-4-[(1-methylethyl)oxy]phenyl}-1,2,4-oxadiazol-3-yl)-5-methyl-3,4-dihydro-2(1H)-isoquinolinyl]acetic acid] | < 100 nM | – | –
Cc1c(-c2noc(-c3ccc(OC(C)C)c(C#N)c3)n2)ccc2c1CCN(CCC(=O)O)C2 [Example 13, 3-[6-(5-{3-Cyano-4-[(1-methylethyl)oxy]phenyl}-1,2,4-oxadiazol-3-yl)-5-methyl-3,4-dihydro-2(1H)-isoquinolinyl]propanoic acid sodium salt] | < 100 nM | – | –
CC(C)Oc1ccc(-c2nc(-c3cccc4c3CCN(CCC(=O)O)C4)no2)cc1C#N [Example 5, 3-[5-(5-{3-cyano-4-[(1-methylethyl)oxy]phenyl}-1,2,4-oxadiazol-3-yl)-3,4-dihydro-2(1H)-isoquinolinyl]propanoic acid hydrochloride] | < 100 nM | – | –
CC(C)Oc1ccc(-c2nc(-c3cccc4c3CCN(C)C4)no2)cc1C#N [Example 7, 2-[(1-methylethyl)oxy]-5-[3-(2-methyl-1,2,3,4-tetrahydro-5-isoquinolinyl)-1,2,4-oxadiazol-5-yl]benzonitrile] | < 100 nM | – | –
Cc1c(-c2noc(-c3ccc(OC(C)C)c(C#N)c3)n2)ccc2c1CCN(CC(=O)O)C2 [Example 12, [6-(5-{3-Cyano-4-[(1-methylethyl)oxy]phenyl}-1,2,4-oxadiazol-3-yl)-5-methyl-3,4-dihydro-2(1H)-isoquinolinyl]acetic acid] | < 100 nM | – | –
Cc1c(-c2noc(-c3ccc(OC(C)C)c(Cl)c3)n2)ccc2c1CCN(CCC(=O)O)C2 [Example 8, 3-[6-(5-{3-Chloro-4-[(1-methylethyl)oxy]phenyl}-1,2,4-oxadiazol-3-yl)-5-methyl-3,4-dihydro-2(1H)-isoquinolinyl]propanoic acid] | < 10 nM | – | –
CCCCCCCCc1ccc(CCC(N)(CO)CO)cc1 [FTY720] | – | reduce circulating lymphocytes in animals and man | results in bradycardia in the first 24 hours of treatment
Cc1c(-c2noc(-c3ccc(OC(C)C)c(C#N)c3)n2)ccc2c1CCNC2 [Example 11, 2-[(1-Methylethyl)oxy]-5-[3-(5-methyl-1,2,3,4-tetrahydro-6-isoquinolinyl)-1,2,4-oxadiazol-5-yl]benzonitrile trifluoroacetic acid salt] | < 100 nM | – | –
CC(C)Oc1ccc(-c2nc(-c3cccc4c3CCN(CC(=O)O)C4)no2)cc1C#N [Example 4, [5-(5-{3-cyano-4-[(1-methylethyl)oxy]phenyl}-1,2,4-oxadiazol-3-yl)-3,4-dihydro-2(1H)-isoquinolinyl]acetic acid hydrochloride] | < 10 nM | – | –
CC(C)Oc1ccc(-c2nc(-c3cccc4c3CCNC4)no2)cc1C#N [Example 3, 2-[(1-methylethyl)oxy]-5-[3-(1,2,3,4-tetrahydro-5-isoquinolinyl)-1,2,4-oxadiazol-5-yl]benzonitrile] | < 100 nM | – | –
CC(C)Oc1ccc(-c2nc(-c3cccc4c3CCNC4)no2)cc1Cl [Example 1, 5-(5-{3-chloro-4-[(1-methylethyl)oxy]phenyl}-1,2,4-oxadiazol-3-yl)-1,2,3,4-tetrahydroisoquinoline hydrochloride] | < 100 nM | – | –
CC(C)Oc1ccc(-c2nc(-c3cccc4c3CCNC4)no2)cc1C#N [Example 2, 2-[(1-methylethyl)oxy]-5-[3-(1,2,3,4-tetrahydro-5-isoquinolinyl)-1,2,4-oxadiazol-5-yl]benzonitrile hydrochloride] | < 10 nM | – | –
CC(C)Oc1ccc(-c2nc(-c3cccc4c3CCN(CCCC(=O)O)C4)no2)cc1C#N [Example 6, 4-[5-(5-{3-cyano-4-[(1-methylethyl)oxy]phenyl}-1,2,4-oxadiazol-3-yl)-3,4-dihydro-2(1H)-isoquinolinyl]butanoic acid hydrochloride] | < 10 nM | – | –
